# Like-named read-outs stand apart in the source and are kept apart here.
# Legend:
# [1] = tested on: SW480 colon carcinoma cells; assay: Cell viability assay (CellTiter-Glo); type: cell-based, human; settings: Homo sapiens; for EC50: 96 h, four days, CellTiter-Glo; for inhibition at 10 µM: read-out: percent inhibition at 10 μM (given for EC50 >10 μM), 10 μM
# [2] = target: recombinant DYRK1A kinase (Homo sapiens (Human), UniProt Q13627); assay: DYRK1A kinase assay (Ser/Thr 18 peptide Z-lyte, FRET)
# Method: Each compound was dissolved in DMSO as a 10 mM stock and used to prepare compound source plates.
# This is a non-radioactive assay using fluorescence resonance energy transfer (FRET) between coumarin and fluorescein to detect kinase activity which is represented as a ratio of coumarin emission/fluorescein emission.
# The mixture was allowed to incubate with the representative compounds for one hour at room temperature. All reactions were performed in duplicate. Unphosphorylated (“0% Control”) and phosphorylated (“100% control”) forms of Ser/Thr 18 served as control reactions. Additionally, an 11-point dose-response curve of Staurosporine (luM top) was run to serve as a positive compound control.
# After incubation, Development Reagent A was diluted in Development Buffer then added to the reaction and allowed to further incubate for one hour at room temperature.
# Dose-response curves were generated and inhibitory concentration (IC50) values were calculated using non-linear regression curve fit in the Dotmatics' Studies Software (Bishops Stortford, UK).
# [3] = tested on: LL29 cells (primary human fibroblasts derived from IPF patients), α-smooth muscle actin; assay: Inhibition of fibrotic process: TGF-β1-treated primary human fibroblasts, αSMA staining; type: cell-based; settings: Homo sapiens, Fibroblast; for EC50: 96 h, TGF-β1 20 ng/mL, 4 days, % cells positive for αSMA; for inhibition at 10 µM: read-out: percent inhibition at 10 μM (given for EC50 >10 μM), TGF-β1, αSMA, 10 μM;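 as to all read-outs here: controls were TGF-β1-stimulated wells with DMSO vehicle as the positive reference and cells given DMSO alone as the negative reference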
# [4] = tested on: IL-6 in human peripheral blood mononuclear cells (huPBMCs); assay: IL-6 inhibition in LPS-stimulated human peripheral blood mononuclear cells (HTRF); type: cell-based; settings: Homo sapiens, PBMC; for EC50: LPS 50 ng/mL, 22 hours, IL-6 HTRF; for inhibition at 10 µM: read-out: percent inhibition at 10 μM (given for EC50 >10 μM), LPS, IL-6, 10 μM
# Method in brief: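 Fresh normal human PBMCs at 1×10e6 cells/mL in RPMI with 1% FBS received compound, then 50 ng/mL E. coli 0111:B4 LPS 2 h later, and were incubated a further 22 h at 37° C. IL-6 read by HTRF (665/620 nm ratio), normalized to DMSO; EC50 from 4-parameter fit.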
# [5] = target: recombinant GSK3β kinase (Homo sapiens (Human), UniProt P49841); assay: GSK3β kinase assay (Ser/Thr 09 peptide Z-lyte, FRET); type: biochemical;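 also: FRET read-out as coumarin over fluorescein emission ratio, compounds incubated one hour at room temperature, IC50 from dose-response curve fit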
# Method: Each compound is dissolved in DMSO as a 10 mM stock and used to prepare compound source plates. Serial dilution (1:3, 11-point dose-response curves from 10 M to 0.0003 M) and compound transfer was performed using the ECHO 550 (Labcyte, Sunnyvale, Calif.) into 1536-well black-walled round bottom plates (Corning).
# This is a non-radioactive assay using fluorescence resonance energy transfer (FRET) between coumarin and fluorescein to detect kinase activity which is represented as ratio of coumarin emission/fluorescein emission.
# The mixture is allowed to incubate with the representative compounds for one hour at room temperature. All reactions were performed in duplicate. Unphosphorylated (“0% Control”) and phosphorylated (“100% control”) forms of Ser/Thr 18 serve as control reactions.
# After incubation, diluted Development Buffer is added to the reaction and allowed to further incubate for one hour at room temperature.
# Dose-response curves are generated and inhibitory concentration (IC50) values are calculated using non-linear regression curve fit in the Dotmatics' Studies Software (Bishops Stortford, UK).
# [6] = tested on: pT212Tau in Dyrk1a- and MAPT-overexpressing HEK293T cells; assay: Tau phosphorylation at Threonine 212 (pT212Tau) sandwich ELISA in double transfected cells; settings: Homo sapiens, HEK-293T, read-out: Thr212 EC50 (μM)
# Method: HEK293T cells (transfectable human embryonic kidney cells) were cultured in DMEM medium supplemented with 10% FBS and 1% penicillin/streptomycin.
# HEK293T cells were transiently transfected to overexpress Dyrk1a and microtubule-associated protein Tau (MAPT) genes. Specifically, Dyrk1a and MAPT expression vectors were obtained from OriGene (10 μg of each, catalog numbers SC314641 and RC216166, respectively). […] HEK293T cells were seeded at 1.0×10^7 cells in 10 mL per T-75 flask. […] One T-75 flask was designated as a no-vector negative control for pT212Tau signal.
# After 4-6 hours of incubation in transfection reagents, transiently double transfected HEK293T cells were dissociated by treatment with trypsin EDTA and seeded at 1.0×10^5 cells in 100 μL per well in 96-well plates. No-vector negative controls were seeded in separate 96-well plates to avoid the risk of the negative control cells picking up the overexpression during incubation.
# 96-well flat-bottom plates were coated with 100 μL per well anti-HT7 capture antibody (ThermoFisher, MN1000) diluted 1:300 in 1×PBS at 4° C. overnight, with shaking at 500 rpm.
# Cells were then lysed with 100 μL 1×RIPA buffer supplemented with phosphatase and protease inhibitors (each diluted to a final 1×). […] V-bottom plates were centrifuged at 4000 rpm, 4° C., for 15 minutes, and 100 μL of lysate supernatant from each well was directly tested for pT212Tau signal by sandwich ELISA.
# [7] = tested on: Tau phosphorylation at Ser396 (pSer396) in SH-SY5Y cells; assay: Tau phosphorylation at Ser396 (pSer396) cell assay, ELISA/western blot; type: cell-based, human; settings: Homo sapiens
# Method: SH-SY5Y cells (human neuroblastoma) were cultured in DMEM/F-12 medium supplemented with 15% FBS, Non-essential Amino Acid and Penicillin/Streptomycin. Two days before treatment, cells were seeded onto 96 well plates at 5×10^4 cells/well.
# The above synthesized compounds were screened using the cell assay procedure to assess decrease Tau phosphorylation at Ser396 (pSer396) described below.
# DMSO-resuspended compounds were dispensed to 8 wells as a serial titration from 10 μM to 4.6 nM final in medium and cells were exposed overnight (16-18 h) in a humidified incubator at 36.6c before harvest.
# Cells were lysed with RIPA buffer complemented with phosphatase and protease inhibitors then lysates were spun down at 12,000 g for 10 min to remove any cellular debris. Lysates are then either directly tested for pSer396 by ELISA (Life Technology, Kit KHB7031) or loaded on NuPage Bis-Tris gels for western blot analysis. Colorimetric detection of ELISA signal is performed by Cytation3 plate reader (Biotek) and the chemiluminescence signal for HRP-linked antibodies used in western blotting is detected using a Carestream Image Station. The same pSer396 antibody is used for detection of pTau in both assays.
# Blot densitometry for pSer396 and β-actin were analyzed using ImageJ (NIH) and pSer396 Tau ELISA signal was used to plot, draw the curve fitting, and determine each compounds EC50 in Prism (GraphPad).
# [8] = DYRK1A kinase, head says EC50, method says IC50, ATP 30 μM
# [9] = GSK3β kinase, head says EC50, method says IC50, ATP 46 μM
# [10] = SH-SY5Y cells, overnight (16-18 h), read-out: pSer396 Tau EC50
# Sequence of recombinant GSK3β kinase (P49841 whole entry): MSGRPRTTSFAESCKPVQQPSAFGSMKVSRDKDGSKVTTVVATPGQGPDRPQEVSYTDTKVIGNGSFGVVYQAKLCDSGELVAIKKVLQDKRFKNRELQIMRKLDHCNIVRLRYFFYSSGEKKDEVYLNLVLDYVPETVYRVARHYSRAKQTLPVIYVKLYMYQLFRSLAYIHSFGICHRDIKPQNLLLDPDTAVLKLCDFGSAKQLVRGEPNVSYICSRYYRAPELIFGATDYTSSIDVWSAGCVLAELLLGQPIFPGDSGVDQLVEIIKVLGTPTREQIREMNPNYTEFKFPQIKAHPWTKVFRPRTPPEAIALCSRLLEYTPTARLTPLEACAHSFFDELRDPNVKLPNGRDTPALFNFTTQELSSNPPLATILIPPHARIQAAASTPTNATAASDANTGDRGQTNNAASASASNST
Structure (SMILES),EC50 [1],"EC50 [2, 8]",EC50 [4],"EC50 [5, 9]","EC50 [7, 10]",EC50 [2],EC50 [5],EC50 [3],EC50 [6],inhibition at 10 µM [1],inhibition at 10 µM [4],inhibition at 10 µM [3],"EC50 ([7]; SH-SY5Y, read-out: pSer396 Tau EC50 (μM))"
"CN1CCN(CC(=O)Nc2cc3cc(-c4cccnc4)c(F)cc3cn2)CC1 [Compound 145, N-(7-Fluoro-6-(pyridin-3-yl)isoquinolin-3-yl)-2-(4-methylpiperazin-1-yl) acetamide]",> 10000 nM,13 nM,> 10000 nM,2890 nM,–,–,–,6520 nM,0.81 µM,18.8%,5.9%,–,–
"CN1CCN(CC(=O)Nc2cc3cc(-c4cncc(F)c4)ccc3cn2)CC1 [Compound 20, N-(6-(5-Fluoropyridin-3-yl)isoquinolin-3-yl)-2-(4-methylpiperazin-1-yl) acetamide]",> 10000 nM,–,> 10000 nM,–,–,31 nM,3280 nM,3140 nM,0.252 µM,37.2%,3.6%,–,–
"[2H]C1([2H])OC([2H])([2H])C([2H])([2H])N(CC(=O)Nc2cc3cc(-c4cccnc4)ccc3cn2)C1([2H])[2H] [Compound 151, 2-(Morpholino-d8)-N-(6-(pyridin-3-yl)isoquinolin-3-yl)acetamide]",> 10000 nM,–,> 10000 nM,–,–,13 nM,795 nM,> 10000 nM,0.009 µM,24.6%,6%,21.2%,–
"O=C(CN1CCOCC1)Nc1cc2cc(-c3cccnc3)c(F)cc2cn1 [Compound 144, N-(7-Fluoro-6-(pyridin-3-yl)isoquinolin-3-yl)-2-morpholinoacetamide]",> 10000 nM,9 nM,> 10000 nM,1250 nM,–,–,–,4600 nM,0.051 µM,22%,9.4%,–,–
"CN1CCN(c2cc(C(=O)Nc3cc4cc(-c5cnc6ocnc6c5)ccc4cn3)ccn2)CC1 [Compound 132, 2-(4-Methylpiperazin-1-yl)-N-(6-(oxazolo[5,4-b]pyridin-6-yl)isoquinolin-3-yl)isonicotinamide]",1510 nM,14 nM,> 10000 nM,> 10000 nM,–,–,–,1350 nM,6.2 µM,–,8.5%,–,–
"O=C(Nc1cc2cc(-c3cccnc3)ccc2cn1)C12CCN(CC1)CC2 [Compound 9, N-(6-(Pyridin-3-yl)isoquinolin-3-yl)quinuclidine-4-carboxamide]",> 10000 nM,26 nM,> 10000 nM,–,–,–,–,2270 nM,0.213 µM,26%,3.9%,–,> 10 µM
"Cc1cc2ncc(-c3ccc4cnc(NC(=O)c5ccnc(N6CCN(C)CC6)c5)cc4c3)cc2[nH]1 [Compound 135, N-(6-(2-Methyl-1H-pyrrolo[3,2-b]pyridin-6-yl)isoquinolin-3-yl)-2-(4-methylpiperazin-1-yl)isonicotinamide]",2370 nM,15 nM,2110 nM,> 10000 nM,–,–,–,2480 nM,3.2 µM,–,–,–,–

# Continued, in another order:
EC50 [1],"EC50 [2, 8]",EC50 [4],"EC50 [5, 9]","EC50 [7, 10]",EC50 [2],EC50 [5],Structure (SMILES),EC50 [3],EC50 [6],inhibition at 10 µM [1],inhibition at 10 µM [4],inhibition at 10 µM [3],"EC50 ([7]; SH-SY5Y, read-out: pSer396 Tau EC50 (μM))"
813 nM,1 nM,375 nM,193 nM,–,–,–,"O=C(Nc1cc2cc(-c3cncc(NC4CCNCC4)n3)ccc2cn1)C1CCCCC1 [Compound 44, N-(6-(6-(piperidin-4-ylamino)pyrazin-2-yl)isoquinolin-3-yl) cyclohexanecarboxamide]",401 nM,< 0.003 µM,–,–,–,–
1220 nM,2 nM,674 nM,264 nM,–,–,–,"O=C(Nc1cc2cc(-c3cncc(NC4CCNCC4)n3)ccc2cn1)C1CCOCC1 [Compound 109, N-(6-(6-(Piperidin-4-ylamino)pyrazin-2-yl)isoquinolin-3-yl)tetrahydro-2H-pyran-4-carboxamide]",27 nM,0.014 µM,–,–,–,–
> 10000 nM,39 nM,> 10000 nM,1180 nM,–,–,–,"O=C(CN1CCCC1)Nc1cc2cc(-c3cncc(F)c3)ccc2cn1 [Compound 18, N-(6-(5-Fluoropyridin-3-yl)isoquinolin-3-yl)-2-(pyrrolidin-1-yl)acetamide]",5970 nM,0.053 µM,22.2%,5.8%,–,–
> 10000 nM,–,> 10000 nM,–,3.3 µM,11 nM,1020 nM,"O=C(Nc1cc2cc(-c3cnccn3)ccc2cn1)[C@H]1CC[C@H](N2CCOCC2)CC1 [Compound 71, trans-4-Morpholino-N-(6-(pyrazin-2-yl)isoquinolin-3-yl)cyclohexane-1-carboxamide]",> 10000 nM,0.019 µM,14.6%,11%,43.4%,–
> 10000 nM,–,320 nM,–,> 10 µM,4 nM,828 nM,"CN1CCN(C[C@H]2CC[C@H](C(=O)Nc3cc4cc(-c5cnccn5)ccc4cn3)CC2)CC1 [Compound 73, trans-4-((4-Methylpiperazin-1-yl)methyl)-N-(6-(pyrazin-2-yl)isoquinolin-3-yl)cyclohexane-1-carboxamide]",> 10000 nM,0.024 µM,50.7%,–,43.1%,–
> 10000 nM,20 nM,> 10000 nM,1120 nM,5.8 µM,–,–,"CN1CCN(CC(=O)Nc2cc3cc(-c4cccnc4)ccc3cn2)CC1 [Compound 11, 2-(4-Methylpiperazin-1-yl)-N-(6-(pyridin-3-yl)isoquinolin-3-yl)acetamide]",3580 nM,2.5 µM,25.6%,8.5%,–,–
> 10000 nM,57 nM,> 10000 nM,6660 nM,–,–,–,"CN1CCC(C(=O)Nc2cc3cc(-c4cncc(C#N)c4)ccc3cn2)CC1 [Compound 32, N-(6-(5-Cyanopyridin-3-yl)isoquinolin-3-yl)-1-methylpiperidine-4-carboxamide]",8400 nM,0.161 µM,8.8%,5.1%,–,–
> 10000 nM,13 nM,> 10000 nM,804 nM,> 10 µM,–,–,"O=C(Nc1cc2cc(-c3cnccn3)ccc2cn1)C1CCN(C2COC2)CC1 [Compound 78, 1-(Oxetan-3-yl)-N-(6-(pyrazin-2-yl)isoquinolin-3-yl)piperidine-4-carboxamide]",2310 nM,–,27.7%,8.9%,–,–
> 10000 nM,29 nM,> 10000 nM,1300 nM,–,–,–,"CC(C)CN1CCCC(C(=O)Nc2cc3cc(-c4cnccn4)ccc3cn2)CC1 (stereo not drawn) [Compound 81, 1-Isobutyl-N-(6-(pyrazin-2-yl)isoquinolin-3-yl)azepane-4-carboxamide]",5460 nM,0.37 µM,21.3%,1.6%,–,–
> 10000 nM,20 nM,> 10000 nM,1020 nM,–,–,–,"COc1cncc(-c2ccc3cnc(NC(=O)CN4CCOCC4)cc3c2)c1 [Compound 147, N-(6-(5-Methoxypyridin-3-yl)isoquinolin-3-yl)-2-morpholinoacetamide]",> 10000 nM,0.147 µM,5.3%,14.7%,24.4%,–
